Data reported in patent US9204653B2, “5-fluoro pyrimidine derivatives” (DOW AGROSCIENCES LLC, priority 2008, dated 2015).
Like-named read-outs stand apart in the source and are kept apart here.

Tested on: Mycosphaerella graminicola; Anamorph: Septoria tritici; Bayer Code SEPTTR
Test: Leaf blotch of wheat, foliar fungicide treatment, one day protectant (1DP) or three day curative (3DC)
Assay type: in vivo, Septoria tritici on wheat plants (variety Yuma)
Conditions: Zymoseptoria tritici; for pest or weed control at 50 ppm / pest or weed control at 200 ppm: % disease control rating
[1] = 24 h, one day protectant (1DP), 25 ppm (first 1DP column), percent control rating, read-out: SETTTR 1DP 25 ppm
[2] = 24 h, one day protectant (1DP), 25 ppm as printed (second 1DP column), percent control rating, read-out: SETTTR 1DP 25 ppm
[3] = 72 h, three day curative (3DC), 25 ppm, percent control rating, read-out: SEPTTR 3DC 25 ppm
[4] = 72 h, three day curative (3DC), percent control rating, read-out: SEPTTR 3DC 100 ppm
[5] = 24 h, one day protectant (1DP), 25 ppm, rating of percent disease control, read-out: SETTTR 1DP 25 ppm
[6] = 24 h, one day protectant (1DP), rating of percent disease control, read-out: SEPTTR 1DP 100 ppm
[7] = 72 h, three day curative (3DC), 25 ppm, rating of percent disease control, read-out: SEPTTR 3DC 25 ppm
[8] = 72 h, three day curative (3DC), rating of percent disease control, read-out: SEPTTR 3DC 100 ppm
[9] = 24 h, one day protectant (1DP), 25 ppm, percent disease control rating, read-out: SETTTR 1DP 25 ppm
[10] = 24 h, one day protectant (1DP), percent disease control rating, read-out: SEPTTR 1DP 100 ppm
[11] = 72 h, three day curative (3DC), 25 ppm, percent disease control rating, read-out: SEPTTR 3DC 25 ppm
[12] = 72 h, three day curative (3DC), percent disease control rating, read-out: SEPTTR 3DC 100 ppm
[13] = 24 h, one day protectant, 25 ppm, rating of percent disease control, read-out: SETTTR 1DP 25 ppm
[14] = 24 h, one day protectant, rating of percent disease control, read-out: SEPTTR 1DP 100 ppm
[15] = 72 h, three day curative, 25 ppm, rating of percent disease control, read-out: SEPTTR 3DC 25 ppm
[16] = 72 h, three day curative, rating of percent disease control, read-out: SEPTTR 3DC 100 ppm

Fc1ccc(COc2ncc(F)c(/N=N/c3ccc(Cl)c(Cl)c3)n2)cc1 [Compound 1090]
pest or weed control at 25 ppm [1]: 0 to 25%
pest or weed control at 25 ppm [2]: 0 to 25%
pest or weed control at 25 ppm [3]: 26 to 50%
pest or weed control at 100 ppm [4]: 26 to 50%

O=S(=O)(Nc1nc(O)ncc1F)C1CC1 [Compound 1104]
pest or weed control at 25 ppm [1]: 0 to 25%
pest or weed control at 25 ppm [2]: 0 to 25%
pest or weed control at 25 ppm [3]: 0 to 25%
pest or weed control at 100 ppm [4]: 0 to 25%

COc1ccccc1COc1ncc(F)c(/N=C/N2CCOCC2)n1 [Compound 541]
pest or weed control at 25 ppm [5]: 76 to 100%
pest or weed control at 100 ppm [6]: 76 to 100%
pest or weed control at 25 ppm [7]: 76 to 100%
pest or weed control at 100 ppm [8]: 76 to 100%

CCc1ccc(COc2ncc(F)c(N)n2)cc1 [Compound 171]
pest or weed control at 25 ppm [9]: 76 to 100%
pest or weed control at 100 ppm [10]: 76 to 100%
pest or weed control at 25 ppm [11]: 76 to 100%
pest or weed control at 100 ppm [12]: 76 to 100%

CCCNC(=S)Nc1nc(OCc2cccc(OC)c2)ncc1F [Compound 119]
pest or weed control at 25 ppm [9]: 26 to 50%
pest or weed control at 100 ppm [10]: 76 to 100%
pest or weed control at 25 ppm [11]: 51 to 75%
pest or weed control at 100 ppm [12]: 76 to 100%

Fc1cnc(OCCc2ccccc2)nc1NCc1ccc(Cl)nc1 [Compound 880]
pest or weed control at 50 ppm (24 h, one day protectant): 0 to 25%
pest or weed control at 200 ppm (24 h, one day protectant): 26 to 50%

OCNc1nc(OCc2cccc(F)c2)ncc1F [Compound 780]
pest or weed control at 25 ppm [5]: 76 to 100%
pest or weed control at 100 ppm [6]: 76 to 100%
pest or weed control at 25 ppm [7]: 76 to 100%
pest or weed control at 100 ppm [8]: 76 to 100%

Fc1ccccc1NC(=S)Nc1nc(OCc2cccs2)ncc1F [Compound 711]
pest or weed control at 25 ppm [13]: 51 to 75%
pest or weed control at 100 ppm [14]: 76 to 100%
pest or weed control at 25 ppm [15]: 26 to 50%
pest or weed control at 100 ppm [16]: 76 to 100%

O=[N+]([O-])c1ccccc1SNc1nc(OCc2cc(Cl)cc(Cl)c2)ncc1F [Compound 90]
pest or weed control at 25 ppm [9]: 76 to 100%
pest or weed control at 100 ppm [10]: 76 to 100%
pest or weed control at 25 ppm [11]: 26 to 50%
pest or weed control at 100 ppm [12]: 51 to 75%

Cc1cc(Cl)ccc1Oc1ncc(F)c(N)n1 [Compound 246]
pest or weed control at 25 ppm [5]: 0 to 25%
pest or weed control at 100 ppm [6]: 0 to 25%

COc1ncc(F)c(N/N=C/c2cc(C)nn2C)n1 [Compound 1020]
pest or weed control at 25 ppm [1]: 0 to 25%
pest or weed control at 25 ppm [2]: 0 to 25%
pest or weed control at 25 ppm [3]: 26 to 50%
pest or weed control at 100 ppm [4]: 0 to 25%

O=C(Nc1ccccc1)Nc1nc(OCc2ccc(F)cc2)ncc1F [Compound 485]
pest or weed control at 25 ppm [5]: 0 to 25%
pest or weed control at 100 ppm [6]: 0 to 25%
pest or weed control at 25 ppm [7]: 0 to 25%
pest or weed control at 100 ppm [8]: 0 to 25%

COc1cccc(COc2ncc(F)c(NC(=O)Cc3ccccc3)n2)c1 [Compound 773]
pest or weed control at 25 ppm [5]: 26 to 50%
pest or weed control at 100 ppm [6]: 76 to 100%
pest or weed control at 25 ppm [7]: 0 to 25%
pest or weed control at 100 ppm [8]: 0 to 25%

Fc1ccccc1CNc1nc(OCc2c(Cl)cccc2Cl)ncc1F [Compound 943]
pest or weed control at 50 ppm (24 h, one day protectant): 51 to 75%
pest or weed control at 200 ppm (24 h, one day protectant): 76 to 100%

COc1ccc(CCOc2ncc(F)c(N)n2)cc1 [Compound 645]
pest or weed control at 25 ppm [13]: 26 to 50%
pest or weed control at 100 ppm [14]: 76 to 100%
pest or weed control at 25 ppm [15]: 0 to 25%
pest or weed control at 100 ppm [16]: 51 to 75%

CCOCNc1nc(O)ncc1F [Compound 1115]
pest or weed control at 25 ppm [1]: 26 to 50%
pest or weed control at 25 ppm [2]: 76 to 100%
pest or weed control at 25 ppm [3]: 26 to 50%
pest or weed control at 100 ppm [4]: 76 to 100%

Cc1ccc(OC(=O)Oc2ncc(F)c(/N=C/N(C)C)n2)cc1 [Compound 610]
pest or weed control at 25 ppm [13]: 76 to 100%
pest or weed control at 100 ppm [14]: 76 to 100%
pest or weed control at 25 ppm [15]: 26 to 50%
pest or weed control at 100 ppm [16]: 51 to 75%

Fc1cnc(OCC(F)(F)F)nc1NCc1ccc(Cl)nc1 [Compound 915]
pest or weed control at 50 ppm (24 h, one day protectant): 0 to 25%
pest or weed control at 200 ppm (24 h, one day protectant): 0 to 25%

CCOCNc1nc(OC(C)c2ccc(F)cc2)ncc1F (stereo not shown) [Compound 379]
pest or weed control at 25 ppm [5]: 76 to 100%
pest or weed control at 100 ppm [6]: 76 to 100%
pest or weed control at 25 ppm [7]: 51 to 75%
pest or weed control at 100 ppm [8]: 76 to 100%

CN(C)/C=N/c1nc(OC(=O)Oc2ccc(Cl)cc2)ncc1F [Compound 361]
pest or weed control at 25 ppm [5]: 51 to 75%
pest or weed control at 100 ppm [6]: 76 to 100%
pest or weed control at 25 ppm [7]: 76 to 100%
pest or weed control at 100 ppm [8]: 76 to 100%

O=C(NCc1ccccc1F)Nc1nc(OCc2ccc(F)cc2)ncc1F [Compound 477]
pest or weed control at 25 ppm [5]: 0 to 25%
pest or weed control at 100 ppm [6]: 0 to 25%
pest or weed control at 25 ppm [7]: 0 to 25%
pest or weed control at 100 ppm [8]: 51 to 75%
